pIC50: −log10 of the molar value. Each block holds one molecule with its values, some of them ahead of it. * marks the point of attachment. Cbz = O=C(OCc1ccccc1)*; CH2F = FC*
Assays:
KP-4 cells [1] = test: Effect of ferroptosis or apoptosis inhibitor on RSL3- or Erastin-induced cell death, KP-4; conditions: KP-4
Experimental: (§1) Cell viability assay was performed to assess the potency of the ferroptosis inducer compounds in various cancer cell lines with K-Ras mutations. Cells at a density of 1,000-10,000 cells/well were seeded in 96-well plates and incubated at 37° C. overnight. A series of 9 different concentrations of compound stocks (500×) were created by 3-fold serial dilution in DMSO. These compounds were further diluted in culture media and then added to cells so that the final DMSO concentration was equal to 0.25% or less. After 96 hours of incubation, 50 μL of CellTiter Glo reagent (Promega) was added to each well and luminescence was measured after 10 minutes using EnVision (PerkinElmer). K101A (a PKC activator) was used as the reference compound titrated from top concentration of 30 μM. All compounds were tested initially from 30 μM as the top concentration in duplicates (range of 4.6 nM-30 μM). […] Data was analyzed using XL-fit software (ID Business Solutions Ltd.). IC50, relative IC50, or % of top inhibition was calculated.
Ferroptosis inhibitors include: Ferrostatin-1 and Liproxstatin-1, inhibitors of ROS accumulation; Deferoxamine, an iron chelator; and PD146176, a 15-lipoxygenase inhibitor (see, e.g., Hofman et al., 2016, J Med Chem. March 10; 59(5):2041-53; Yang et al., 2016 Cell 26(3):165-176). The apoptosis inhibitor chosen was ZVAD (see, e.g. Wu et al., 2011, Cell Death and Differentiation 18:26-37). Ferroptosis inhibitors and ZVAD were first titrated as a single agent as shown in Example 1.

[2] = system: A549, MiaPaCa-2, and KP-4; test: Cell viability assay, comparison across A549, MiaPaCa-2 and KP-4; assay type: cell-based; conditions: single agent
Experimental: as §1

[3] = system: KP-4 pancreatic cancer cell line; test: Cell viability assay (CellTiter Glo), KP-4; assay type: cell-based
Experimental: (§2) Cell viability assay was performed to assess the potency of the ferroptosis inducer compounds in various cancer cell lines with K-Ras mutations. […] A series of 9 different concentrations of compound stocks (500×) were created by 3-fold serial dilution in DMSO. […] After 96 hours of incubation, 50 μL of CellTiter Glo reagent (Promega) was added to each well and luminescence was measured after 10 minutes using EnVision (PerkinElmer). […] […] IC50, relative IC50, or % of top inhibition was calculated.

[4] = system: K-RAS mutant pancreatic cell lines; test: Cell viability assay, several pancreatic cell lines compared with A549; assay type: cell-based; conditions: for potency in the pancreatic cell lines relative to A549 (in words): MiaPaCa-2 and KP-4 versus A549
Experimental: (§3) Cell viability assay was performed to assess the potency of the ferroptosis inducer compounds in various cancer cell lines with K-Ras mutations. […] A series of 9 different concentrations of compound stocks (500×) were created by 3-fold serial dilution in DMSO. […] After 96 hours of incubation, 50 μL of CellTiter Glo reagent (Promega) was added to each well and luminescence was measured after 10 minutes using EnVision (PerkinElmer). […] IC50, relative IC50, or % of top inhibition was calculated. Next, RSL3, ML210, Erastin, and Auranofin were tested on additional K-RAS mutant pancreatic cell lines (Panc1, Panc6.03, Panc2.13, PSN-1, and Capan-1) in Table 1.

A549 cells [5] = test: Combination proliferation assay with PKC activator, A549; assay type: cell-based; conditions: inducer at concentration with minimal or no effect alone
Experimental: as §1
(§4) Therefore, whether PKC activators synergize or antagonize with ferroptosis inducers can be tested empirically.

Panc2.13 cells [6] = test: Cell viability assay (CellTiter Glo), Panc2.13; assay type: cell-based; conditions: Panc2.13 versus A549
Experimental: as §3

KP-4 cells [7] = test: Combination proliferation assay with PKC activator, KP-4; assay type: cell-based
Experimental: as §1, §4

Capan-1 cells [8] = test: Cell viability assay (CellTiter Glo), Capan-1; assay type: cell-based
Experimental: as §3

Panc1 cells = test: Combination proliferation assay with PKC activator, Panc1; assay type: cell-based
Experimental: as §1, §4

Capan-1 cells [9] = test: Combination proliferation assay with PKC activator, Capan-1; assay type: cell-based
Experimental: as §1, §4

PSN-1 cells [10] = test: Combination proliferation assay with PKC activator, PSN-1; assay type: cell-based
Experimental: as §1, §4

Mino cell line = test: Combination proliferation assay with PKC activator, Mino; assay type: cell-based
Experimental: as §1, §4
(§5) Therefore, it is of interest to test combination treatment of both classes of compounds in lymphoma cells.

Panc2.13 cells [11] = test: Combination proliferation assay with PKC activator, Panc2.13; assay type: cell-based
Experimental: as §1, §4

[12] = system: A549 lung cancer cell line; test: Cell viability assay (CellTiter Glo), A549; assay type: cell-based
Experimental: as §2

Namalwa cell line = test: Combination proliferation assay with PKC activator, Namalwa; assay type: cell-based
Experimental: as §1, §4, §5

[13] = system: MiaPaCa-2 pancreatic cancer cell line; test: Cell viability assay (CellTiter Glo), MiaPaCa-2; assay type: cell-based; conditions: Homo sapiens, MIA PaCa-2, 96 hours of incubation
Experimental: as §2

A549 cells [14] = test: Effect of ferroptosis or apoptosis inhibitor on RSL3- or Erastin-induced cell death, A549; conditions: A549; ZVAD
Experimental: as §1
Ferroptosis inhibitors include: Ferrostatin-1 and Liproxstatin-1, inhibitors of ROS accumulation; Deferoxamine, an iron chelator; and PD146176, a 15-lipoxygenase inhibitor (see, e.g., Hofman et al., 2016, J Med Chem. March 10; 59(5):2041-53; Yang et al., 2016 Cell 26(3):165-176). […]

PSN-1 cells [15] = test: Cell viability assay (CellTiter Glo), PSN-1; assay type: cell-based; conditions: PSN-1; 96 hours of incubation
Experimental: as §3

Molecule: Clc1cccc(CN=C2Nc3ccccc3NC23CCNCC3)c1 [Liproxstatin-1]
- effect on cell death induced by RSL3 or Erastin (KP-4 cells [1]; co-treatment, Liproxstatin-1 at 304): completely abrogated cell death
- differential activity among three cell lines [2]: do not show differential activity
- potency in blocking cell proliferation (in words) [2]: not potent

Molecule: COc1ccc(N(C(=O)CCl)C(C(=O)NCCc2ccccc2)c2cccs2)cc1Cl (stereo not drawn) [ML162]
- selectivity for KP-4 over A549 ([3]; KP-4 versus A549): > 80 fold

Molecule: Cc1onc(C(=O)N2CCN(C(c3ccc(Cl)cc3)c3ccc(Cl)cc3)CC2)c1[N+](=O)[O-] [ML210]
- potency in the pancreatic cell lines relative to A549 (in words) [4]: at least two orders of magnitude more potent
- sensitivity in comparison to A549 ([4]; range over Panc1, Panc6.03, and PSN-1): 8-30 fold
- synergy with K101A or K102 to block proliferation (A549 cells [5]): minor synergy
- selectivity in comparison to A549 (Panc2.13 cells [6]): no selectivity
- synergy when combined with K101A or K102 (KP-4 cells [7]): no synergy
- selectivity in comparison to A549 (Capan-1 cells [8]; Capan-1 versus A549): no selectivity
- effect on the potency of K101A or K102 (Panc1 cells): increasing the potency
- synergy with K101A or K102 to block proliferation (Panc1 cells): synergized
- % of top inhibition by K101A or K102 in combination with the ferroptosis inducer (Capan-1 cells [9]): ~80%
- effect on the potency of K101A or K102 (Capan-1 cells [9]): increased the potency
- synergy with K101A or K102 to block proliferation (Capan-1 cells [9]): synergized strongly
- synergy with K101A (PKC activators) to block proliferation (PSN-1 cells [10]): synergized
- synergy when combined with K101A or K102 (Mino cell line): minor synergy
- % of top inhibition by K101A or K102 in combination with the ferroptosis inducer (Panc2.13 cells [11]): ~80%
- effect on the potency of K101A or K102 (Panc2.13 cells [11]): increased the potency
- synergy with K101A or K102 to block proliferation (Panc2.13 cells [11]): synergized

Molecule: c1ccc2c(c1)SCc1c-2[nH]c2ccccc12 [PD146176]
- effect on RSL3- or Erastin-induced cell death (KP-4 cells [1]; PD146176 at 0.504): partially reversed
- differential activity among three cell lines [2]: do not show differential activity
- potency in blocking cell proliferation (in words) [2]: not potent

- pIC50 ([12]; Homo sapiens, A549 lung cancer cell line, 96 hours of incubation): 5.73
- pIC50 ([3]; Pancreatic cancer cell, KP-4, 96 hours of incubation): 8.70
- pIC50 [13]: 8.10
Molecule: COC(=O)c1ccc([C@H]2c3[nH]c4ccccc4c3C[C@H](C(=O)OC)N2C(=O)CCl)cc1 [RSL3]
- potency in the pancreatic cell lines relative to A549 (in words) [4]: two to three orders of magnitude more potent
- selective cell death in comparison to A549 ([4]; range over all five lines Panc1, Panc6.03, Panc2.13, PSN-1, Capan-1): 2-26 fold
- synergy with K101A or K102 to block proliferation (A549 cells [5]): synergized strongly
- synergy when combined with K101A or K102 (KP-4 cells [7]): only additive effects
- effect on the potency of K101A or K102 (Panc1 cells): increasing the potency
- synergy with K101A or K102 to block proliferation (Panc1 cells): synergized
- effect of addition to K101A or K102 on potency and % of top inhibition (Namalwa cell line): improved potency and % of top inhibition
- % of top inhibition by K101A or K102 in combination with the ferroptosis inducer (Capan-1 cells [9]): ~80%
- effect on the potency of K101A or K102 (Capan-1 cells [9]): increased the potency
- synergy with K101A or K102 to block proliferation (Capan-1 cells [9]): synergized strongly
- synergy with K101A (PKC activators) to block proliferation (PSN-1 cells [10]): synergized
- % of top inhibition by K101A or K102 in combination with the ferroptosis inducer (Panc2.13 cells [11]): ~80%
- effect on the potency of K101A or K102 (Panc2.13 cells [11]): increased the potency
- synergy with K101A or K102 to block proliferation (Panc2.13 cells [11]): synergized

Molecule: O=C(O)c1cc(/N=N/c2ccc(S(=O)(=O)Nc3ccccn3)cc2)ccc1O [Sulfasalazine]
- synergy with K101A or K102 to block proliferation (A549 cells [5]): No synergy
- synergy with K101A or K102 to block proliferation (Panc2.13 cells [11]): did not synergize

Molecule: Buthionine sulfoximine [BSO]
- effect on A549 cells ([12]; at very high concentration (>1 mM)): minimal effects

Molecule: Cbz-Val-Ala-Asp-CH2F
- effect on RSL3- or Erastin-induced cell death (KP-4 cells [1]; ZVAD at 30 μM): did not rescue
- differential activity among three cell lines [2]: do not show differential activity
- potency in blocking cell proliferation (in words) [2]: not potent
- effect on RSL3- or Erastin-induced cell death (A549 cells [14]): did not rescue

Molecule: Dihydroartemisinin
- pIC50 (PSN-1 cells [15]): 6.27
- synergy when combined with K101A or K102 (KP-4 cells [7]): moderate/minor synergy
- pIC50 (Capan-1 cells [8]; Capan-1, 96 hours of incubation): 5.67
- synergy with K101A (PKC activators) to block proliferation (PSN-1 cells [10]): no synergy

— US20200138829A1, “METHODS OF CANCER TREATMENT” (Ferro Therapeutics, Inc., priority 2017, published 2020)
